Reference: ChEMBL document CHEMBL1201862, “PubChem BioAssay data set” (2004)
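Cultured in 96-well plates, cells were exposed to test compound for 48 hours across five concentrations. GI50: concentration for 50% inhibition of growth.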 The source made the active and inactive calls. Rule as the data show it: active = GI50 up to about 1.1 µM and inactive = higher.

Columns and labels:
Experiment in all cases: inhibition of tumour cell growth, NCI panel, 48 h
Malme-3M = system: Malme-3M
HCC 2998 = system: HCC 2998
Hs-578T = system: Hs-578T
OVCAR-3 = system: OVCAR-3
KM12 = system: KM12
RPMI-8226 = system: RPMI-8226
786-0 = system: 786-0
NCI-H522 = system: NCI-H522
MDA-N = system: MDA-N
SK-MEL-28 = system: SK-MEL-28
OVCAR-5 = system: OVCAR-5
TK-10 = system: TK-10
EKVX = system: EKVX
ACHN = system: ACHN
MDA-MB-231 = system: MDA-MB-231
SK-MEL-2 = system: SK-MEL-2
A549 = system: A549
DU-145 = system: DU-145

Measured: GI50

O=c1c2cn[nH]c2nc2scc(-c3ccc(Cl)cc3)n12
inactive: Malme-3M > 100 µM | HCC 2998 > 100 µM | Hs-578T 41.7 µM | OVCAR-3 > 100 µM | KM12 > 100 µM | RPMI-8226 > 100 µM | 786-0 > 100 µM | NCI-H522 > 100 µM | MDA-N > 100 µM | SK-MEL-28 > 100 µM | OVCAR-5 > 100 µM | TK-10 > 100 µM | EKVX > 100 µM | ACHN > 100 µM | MDA-MB-231 > 100 µM | SK-MEL-2 53.6 µM | A549 > 100 µM

COc1ccc2c(C)cc(N/N=C/c3ccc(OC)c4ccccc34)nc2c1
inactive: Malme-3M 17.5 µM | Hs-578T 15.7 µM | OVCAR-3 2.96 µM | KM12 13.2 µM | RPMI-8226 2.78 µM | 786-0 12.1 µM | NCI-H522 12 µM | SK-MEL-28 16.1 µM | OVCAR-5 14 µM | DU-145 4.36 µM | TK-10 17.3 µM | EKVX 17.7 µM | ACHN 4.48 µM | MDA-MB-231 4.91 µM | SK-MEL-2 19.2 µM | A549 18.6 µM

NNc1[nH]c(=S)[nH]c1C(N)=O
inactive: Malme-3M > 100 µM | HCC 2998 > 100 µM | Hs-578T > 100 µM | OVCAR-3 > 100 µM | KM12 > 100 µM | RPMI-8226 > 100 µM | 786-0 > 100 µM | NCI-H522 > 100 µM | SK-MEL-28 > 100 µM | OVCAR-5 > 100 µM | DU-145 > 100 µM | TK-10 > 100 µM | EKVX > 100 µM | MDA-MB-231 > 100 µM | SK-MEL-2 > 100 µM | A549 > 100 µM

COc1ccc(Cc2nc3cc(C(F)(F)F)ccc3n2CCCN(C)C)cc1
inactive: Malme-3M 13.7 µM | HCC 2998 3.93 µM | Hs-578T 17.5 µM | OVCAR-3 17.3 µM | KM12 16.7 µM | NCI-H522 14.8 µM | SK-MEL-28 18 µM | OVCAR-5 22.9 µM | DU-145 19.2 µM | TK-10 20.7 µM | EKVX 23.6 µM | ACHN 27.2 µM | MDA-MB-231 24 µM | SK-MEL-2 19 µM | A549 17.3 µM

C=CCN1C(=O)NC(=O)/C(=C/c2c3ccccc3cc3ccccc23)C1=O
inactive: Malme-3M 18.6 µM | HCC 2998 14.8 µM | OVCAR-3 18.9 µM | KM12 16.2 µM | NCI-H522 20.2 µM | SK-MEL-28 22.4 µM | OVCAR-5 20.5 µM | TK-10 20 µM | EKVX 25.5 µM | SK-MEL-2 19.6 µM | A549 21 µM

CC(NC(CC12CC3CC(CC(C3)C1)C2)C(N)=O)c1ccccc1 (stereo not given)
inactive: Malme-3M 17.9 µM | HCC 2998 17.5 µM | OVCAR-3 13.2 µM | RPMI-8226 15.7 µM | NCI-H522 18 µM | MDA-N 25.6 µM | SK-MEL-28 20 µM | OVCAR-5 17.5 µM | DU-145 24.7 µM | TK-10 26.6 µM | EKVX 23.4 µM | ACHN 20.9 µM | MDA-MB-231 29.3 µM | A549 39.8 µM

Fc1cc(-c2cc(-c3ccccc3)no2)c(Cl)cc1Cl
inactive: Malme-3M 19.2 µM | Hs-578T > 34.8 µM | OVCAR-3 21.6 µM | KM12 16.2 µM | RPMI-8226 6.93 µM | 786-0 15.5 µM | NCI-H522 14.9 µM | MDA-N 16.1 µM | SK-MEL-28 > 29.8 µM | OVCAR-5 1.29 µM | DU-145 > 32.3 µM | TK-10 > 34.7 µM | EKVX 11.4 µM | ACHN > 35.2 µM | MDA-MB-231 14.1 µM | SK-MEL-2 23.6 µM | A549 10.3 µM

Cc1cn(C2CC(O)C(Cn3nncc3Cn3cnc4c(N)ncnc43)O2)c(=O)[nH]c1=O (stereo not given)
inactive: Malme-3M > 100 µM | HCC 2998 > 100 µM | Hs-578T > 100 µM | OVCAR-3 > 100 µM | KM12 > 100 µM | RPMI-8226 > 100 µM | 786-0 > 100 µM | NCI-H522 > 100 µM | MDA-N > 100 µM | SK-MEL-28 > 100 µM | OVCAR-5 > 100 µM | DU-145 > 100 µM | TK-10 > 100 µM | EKVX > 100 µM | ACHN > 100 µM | SK-MEL-2 > 100 µM | A549 > 100 µM

O=C1Nc2ccccc2/C1=N/Nc1nc(-c2ccccc2)cs1
inactive: HCC 2998 52.5 µM | OVCAR-3 26.4 µM | KM12 30.3 µM | 786-0 26.4 µM | MDA-N 62.4 µM | SK-MEL-28 36.1 µM | OVCAR-5 58.3 µM | DU-145 35.5 µM | TK-10 31.9 µM | EKVX 21.4 µM | ACHN 24.5 µM | MDA-MB-231 28.3 µM | SK-MEL-2 84.1 µM | A549 75.3 µM

C[C@]12CC[C@H](O)CC1=CC[C@@H]1[C@@H]2CC[C@]2(C)NC(=O)/C(=C\c3ccccc3)C[C@@H]12
inactive: Malme-3M 15.8 µM | HCC 2998 13.4 µM | OVCAR-3 11.9 µM | KM12 14.5 µM | RPMI-8226 21.6 µM | 786-0 19.8 µM | NCI-H522 10.5 µM | MDA-N 24.3 µM | SK-MEL-28 16.7 µM | OVCAR-5 14.5 µM | DU-145 16.4 µM | TK-10 28.2 µM | EKVX 14 µM | ACHN 17.4 µM | MDA-MB-231 16 µM | SK-MEL-2 12.6 µM | A549 14.6 µM

O=C(N/N=C\c1ccc([N+](=O)[O-])cc1)Nc1ccccc1
inactive: Malme-3M > 100 µM | Hs-578T > 100 µM | OVCAR-3 > 100 µM | KM12 > 100 µM | RPMI-8226 > 100 µM | MDA-N > 100 µM | SK-MEL-28 > 100 µM | OVCAR-5 > 100 µM | DU-145 > 100 µM | TK-10 > 100 µM | SK-MEL-2 > 100 µM

Cc1cc(C#N)c(Nc2ccc(F)cc2[N+](=O)[O-])s1
inactive: Malme-3M 70.6 µM | HCC 2998 > 100 µM | OVCAR-3 > 100 µM | KM12 > 100 µM | RPMI-8226 > 100 µM | 786-0 54.5 µM | NCI-H522 > 100 µM | MDA-N > 100 µM | SK-MEL-28 > 100 µM | OVCAR-5 > 100 µM | DU-145 > 100 µM | EKVX > 100 µM | ACHN 83.8 µM | MDA-MB-231 21.5 µM | A549 > 100 µM

COc1ccc(-c2cc(O)c3cccnc3n2)cc1
inactive: Malme-3M 31.9 µM | HCC 2998 82 µM | Hs-578T 24.9 µM | KM12 33.7 µM | RPMI-8226 22.9 µM | NCI-H522 41.1 µM | SK-MEL-28 44 µM | OVCAR-5 > 100 µM | DU-145 64.6 µM | TK-10 44.4 µM | EKVX > 100 µM | ACHN 53.7 µM | MDA-MB-231 > 100 µM | SK-MEL-2 83.8 µM | A549 53.7 µM
